# Patent US20120010272A1, “RNA Interference Mediated Inhibition of Apoptosis Signal-Regulating Kinase 1 (ASK1) Gene Expression Using Short Interfering Nucleic Acid (siNA)” (Merck Sharp & Dohme Corp., priority 2009, published 2012)
# [invAb] = inverted abasic unit; m = 2'-O-methyl; r = 2'-OH (RNA); f = 2'-fluoro
# Key:
# Assay type in all cases: cell-based
# ASK1 mRNA [1] = test: ASK1 mRNA knock-down by siNA in human A549 cells (RNAiMax transfection, Taqman RT-PCR)
# Method: A549 (human; ATCC cat #CCL-185): Cells were cultured at 37° C. in the presence of 5% CO2 and grown in Ham's F12K medium with 2 mM L-glutamine adjusted to contain 1.5 g/L sodium bicarbonate and supplemented with fetal bovine serum at a final concentration of 10%, 100 μg/mL of streptomycin, and 100 U/mL penicillin.
# (§1) Cells were plated in all wells of a tissue-culture treated, 96-well plate at a final count of 5000 cells/well (A549 cell line) and 3,500 cells/well (Hepal-6 cell line) in 100 μL of the appropriate culture media. The cells were cultured for 24 hours after plating at 37° C. in the presence of 5% CO2.
# (§2) After 24 hours, complexes containing siNA and RNAiMax were created as follows: A solution of RNAiMax diluted 33-fold in OPTI-MEM was prepared. In parallel, solutions of the siNAs for testing were prepared to a final concentration of 120 nM in OPTI-MEM. After incubation of RNAiMax/OPTI-MEM solution at room temperature for 5 min, an equal volume of the siRNA solution and the RNAiMax solution were added together for each of the siNAs.
# (§3) This solution was incubated at room temperature for 20 minutes. After incubation, 20 uL of the solution was added to each of the relevant wells. The final concentration of siNA in each well was 10 nM and the final volume of RNAiMax in each well was 0.3 ul.
# (§4) The time of incubation with the RNAiMax-siNA complexes was 24 hours and there was no change in media between transfection and harvesting, unless otherwise indicated.
# (§5) RNA was extracted from a 96-well plate using the TaqMan® Gene Expression Cells-to-CT™ Kit (Cat #4399002) with a modified protocol. Briefly, a 60 uL (1 plate) or 110 uL (2 plates) of the Lysis Solution with DNase I was dispensed into each well of the Lysis Buffer Plate (twin.tec full skirt plate). The lysis buffer and stop plates were stored at 4° C. until the cells were washed.
# (§6) The plate was spun at 1100 rpm for 5 minutes. The culture medium was aspirated and discarded from the wells of the culture plate. The lysis was performed automatically using a BioMek FX instrument and method. After the Biomek method was completed, the lysis plate was incubated for 2 min. at room temperature. The lysis plate can be stored for 2 hours at 4° C., or at −20° C. or −80° C. for two months.
# (§7) Each well of the reverse transcription plate required 10 uL of 2× reverse transcriptase Buffer, 1 uL of 20× reverse transcription enzyme and 2 uL of nuclease-free water. The reverse transcription master mix was prepared by mixing 2× reverse transcription buffer, 20× reverse transcription enzyme mix, and nuclease-free water. 13 uL of the reverse transcription master mix was dispensed into each well of the reverse transcription plate (semi-skirted). A separate reverse transcription plate was prepared for each cell plate. The plate was loaded onto a Biomek NX or Biomek FX Dual-96 and the Biomek method was run. The program is programmed to automatically added 7 uL of lysate from the cell lysis procedure described above into each well of the reverse transcription plate. The plate is sealed and spun on a centrifuge (1000 rpm for 30 seconds) to settle the contents to the bottom of the reverse transcription plate. The plate is placed in a thermocycler at 37° C. for 60 min, 95° C. for 5 min, and 4° C. until the plate is removed from the thermocycler. Upon removal, if not used immediately, the plate was frozen at −20° C.
# (§8) A series of probes and primers were used to detect the various mRNA transcripts of the genes of ASK1, ASK2, and GAPDH in human cell lines and ASK1 and GAPDH in mouse cell lines. All Taqman probes and primers for the experiments were supplied as pre-validated sets by ABI (see Table 2).
# (§9) The assays were performed on an ABI 7900 instrument, according to the manufacturer's instructions. A TaqMan Gene Expression Master Mix (provided in the Cells-to-CT™, Applied Biosystems, Cat #4399002) was used. […]
# ASK1 mRNA [2] = test: ASK1 mRNA knock-down by siNA in mouse Hepa1-6 cells (RNAiMax transfection, Taqman RT-PCR); conditions: 10 nM siNA, 24 hrs post-transfection, vs non-targeting control, GAPDH-normalized, mean ± S.D., two experiments
# Method: Hepal-6 (murine; ATCC cat #CRL-1830): Cells were cultured at 37° C. in the presence of 5% CO2 and grown in Dulbecco's modified Eagle's medium (DMEM) with 4 mM L-glutamine adjusted to contain 1.5 g/L sodium bicarbonate and 4.5 g/L glucose and supplemented with 10% of fetal bovine serum, 100 μg/mL of streptomycin, and 100 U/mL penicillin.
# as §1, §2, §3, §4, §5, §6, §7, §8, §9
# [3] = tested on: mRNA transcript of human ASK2; test: ASK2 specificity screen: effect of ASK1 siNAs on human ASK2 mRNA in A549 cells; conditions: 1 nM siNA, three independent experiments, mean ± standard deviation
# Method: A549 cells were plated in all wells of a tissue-culture treated, 96-well plate at a final count of 5,000 cells/well in 100 μL of appropriate culture media. Cells were cultured for 24 hours after plating at 37° C. in the presence of 5% CO2.
# as §2, with “follows.” for “follows:”, “siRNAs” for “siNAs”, “12” for “120”, “siNA” for “siRNA”, “siNAs. […] This solution was incubated at room temperature for 20 minutes. After incubation, 20 uL of the solution was added to each of the relevant wells. The final concentration of siNA in each well was 1 nM and the final volume of RNAiMax in each well was 0.3 uL. The time of incubation with the RNAiMax-siNA complexes was 24 hours.” for “siNAs.”
# as §5, §6, §7, §8
# The assays were performed on an ABI 7900 instrument, according to the manufacturer's instructions. A TaqMan Gene Expression Master Mix (provided in the Cells-to-CT™, Applied Biosystems, Cat #4399002) was used. The PCR reactions were carried out at 50° C. for 2 min, 95° C. for 10 min followed by 40 cycles at 95° C. for 15 secs and 60° C. for 1 min.
# The expression level of the gene of interest and % knock-down was calculated using Comparative Ct method:
# ΔΔCt=ΔCt(Target siRNA)−ΔCt(NTC)
# Relative expression level=2^−ΔΔCt
# The non-targeting control siRNA was, unless otherwise indicated, chosen as the value against which to calculate the % knock-down, because it is the most relevant control.
# The specificity of these siNAs was also assessed. […]
# ASK1 mRNA [4] = test: ASK1 mRNA knock-down by siNA in human A549 cells (RNAiMax transfection, Taqman RT-PCR); conditions: 12 concentrations 0.083 fM to 30 nM, mean ± S.D.
substance,measurement,setting,value
"25399-DC: siNA duplex, sense B ccAAcAcuAcAGucAGGAA TTB, antisense UUCcuGAcuGuAGuGuuGGUU (SEQ ID NO: 79/80), human ASK1 target site 1640 (sense CCAACACUACAGUCAGGAATT; antisense UUCCUGACUGUAGUGUUGGUU; sense: DNA at AGT, 2'-fluoro at CU, [invAb] at 5' end, 3' end, backbone not given here; antisense: sugars from the 5' end rrrffmmffmfmmfmffmmmm, backbone not given here)",% KD Human,"ASK1 mRNA [1]; 10 nM siNA, 24 hrs post-transfection, vs non-targeting control, GAPDH-normalized, mean ± S.D., two experiments",81 ± 2%
same,% KD ASK-1 mRNA at 10 nM,"ASK1 mRNA [1]; 10 nM, mean ± S.D. (Table 5)",81 ± 2%
same,% KD ASK-1 10 nM,"ASK1 mRNA [1]; 10 nM, two experiments, mean ± standard deviation (Table 6)",81 ± 2%
same,% KD Mouse,ASK1 mRNA [2],62 ± 0%
same,% KD ASK-2 1 nM,[3],9 ± 8%
same,IC50,ASK1 mRNA [4],150 ± 43 pM
